# Reference: paper PMC5218480 (PLoS ONE, 2017)
# Tested on: MV-4-11 cells
# Test: Gene expression microarray analysis (Affymetrix PrimeView) and GSEA
# Type: cell-based, human
# Set-up: RFU PODN (11730768_x_at) / Fold change /veh PODN (11730768_x_at) / RFU LINC00158 (11744669_a_at) / Fold change /veh LINC00158 (11744669_a_at) / RFU DUSP10 (11751237_a_at) / Fold change /veh DUSP10 (11751237_a_at) / RFU ID3 (11757404_x_at) / Fold change /veh ID3 (11757404_x_at) / RFU PLEKHG5 (11737974_s_at) / Fold change /veh PLEKHG5 (11737974_s_at) / RFU LRRC4B (11730491_at) / Fold change /veh LRRC4B (11730491_at) / RFU GIMAP4 (11747438_a_at) / Fold change /veh GIMAP4 (11747438_a_at) / RFU KRT8 (11758183_x_at) / Fold change /veh KRT8 (11758183_x_at) / RFU CNN1 (11734310_a_at) / Fold change /veh CNN1 (11734310_a_at) / RFU VPS37D (11726825_at) / Fold change /veh VPS37D (11726825_at) / RFU C10orf10 (11716522_x_at) / Fold change /veh C10orf10 (11716522_x_at) / RFU KIR2DL2 /// KIR2DL4 /// KIR2DL5A /// KIR2DL5B /// KIR2DS1 /// KIR2DS2 /// KIR2DS3 /// KIR2DS4 /// KIR3DL3 /// KIR3DL3 /// KIR3DS1 (11738374_at) / Fold change /veh KIR2DL2 /// KIR2DL4 /// KIR2DL5A /// KIR2DL5B /// KIR2DS1 /// KIR2DS2 /// KIR2DS3 /// KIR2DS4 /// KIR3DL3 /// KIR3DL3 /// KIR3DS1 (11738374_at) / RFU C1QL1 (11718748_at) / Fold change /veh C1QL1 (11718748_at) / RFU TMPRSS4 (11747572_a_at) / Fold change /veh TMPRSS4 (11747572_a_at) / RFU HAMP (11756126_x_at) / Fold change /veh HAMP (11756126_x_at) / RFU RNFT2 (11725882_a_at) / Fold change /veh RNFT2 (11725882_a_at) / RFU NR4A2 (11747474_a_at) / Fold change /veh NR4A2 (11747474_a_at) / RFU ABCC12 (11746883_a_at) / Fold change /veh ABCC12 (11746883_a_at) / RFU TMEM136 (11760407_x_at) / Fold change /veh TMEM136 (11760407_x_at) / RFU CLDN22 /// WWC2 (11732394_at) / Fold change /veh CLDN22 /// WWC2 (11732394_at) / RFU HLA-DPB1 (11760878_x_at) / Fold change /veh HLA-DPB1 (11760878_x_at) / RFU SPINT1 (11716480_a_at) / Fold change /veh SPINT1 (11716480_a_at) / RFU GAP43 (11754022_s_at) / Fold change /veh GAP43 (11754022_s_at) / RFU A4GNT (11735810_at) / Fold change /veh A4GNT (11735810_at) / RFU PRB3 (11715151_x_at) / Fold change /veh PRB3 (11715151_x_at) / RFU TUBB4B (11761932_at) / Fold change /veh TUBB4B (11761932_at) / RFU CAPN14 (11732068_a_at) / Fold change /veh CAPN14 (11732068_a_at) / RFU TMCC2 (11721928_a_at) / Fold change /veh TMCC2 (11721928_a_at) / RFU IRGQ (11745062_a_at) / Fold change /veh IRGQ (11745062_a_at) / RFU FAM174B (11720279_a_at) / Fold change /veh FAM174B (11720279_a_at) / RFU TMPRSS4 (11748680_a_at) / Fold change /veh TMPRSS4 (11748680_a_at) / RFU FAM212B (11763350_a_at) / Fold change /veh FAM212B (11763350_a_at) / RFU PLEKHG5 (11743358_a_at) / Fold change /veh PLEKHG5 (11743358_a_at) / RFU ZSCAN30 (11745921_a_at) / Fold change /veh ZSCAN30 (11745921_a_at) / RFU CMKLR1 (11741424_a_at) / Fold change /veh CMKLR1 (11741424_a_at) / RFU LOC101060620 /// MAPK8IP1 (11723275_at) / Fold change /veh LOC101060620 /// MAPK8IP1 (11723275_at) / RFU SPTSSB (11747773_x_at) / Fold change /veh SPTSSB (11747773_x_at) / RFU PRSS12 (11739890_at) / Fold change /veh PRSS12 (11739890_at) / RFU BIN1 (11741810_x_at) / Fold change /veh BIN1 (11741810_x_at) / RFU WNT11 (11732464_a_at) / Fold change /veh WNT11 (11732464_a_at) / RFU C10orf10 (11716521_a_at) / Fold change /veh C10orf10 (11716521_a_at) / RFU C5orf56 (11738089_at) / Fold change /veh C5orf56 (11738089_at) / RFU CYB561 (11721691_x_at) / Fold change /veh CYB561 (11721691_x_at) / RFU ANKRD19P (11752326_a_at) / Fold change /veh ANKRD19P (11752326_a_at) / RFU OR2T12 /// OR2T33 /// OR2T8 (11738714_s_at) / Fold change /veh OR2T12 /// OR2T33 /// OR2T8 (11738714_s_at) / RFU VCAN (11748164_a_at) / Fold change /veh VCAN (11748164_a_at) / RFU JSRP1 (11732532_at) / Fold change /veh JSRP1 (11732532_at) / RFU KRTAP10-11 (11738290_x_at) / Fold change /veh KRTAP10-11 (11738290_x_at) / RFU MYO3A (11730013_a_at) / Fold change /veh MYO3A (11730013_a_at) / RFU EBF3 (11725865_a_at) / Fold change /veh EBF3 (11725865_a_at) / RFU CAMK2N1 (11719241_x_at) / Fold change /veh CAMK2N1 (11719241_x_at) / RFU C5orf56 (11738088_a_at) / Fold change /veh C5orf56 (11738088_a_at) / RFU OLFML3 (11715873_a_at) / Fold change /veh OLFML3 (11715873_a_at) / RFU LOC100653217 /// NTM (11731650_a_at) / Fold change /veh LOC100653217 /// NTM (11731650_a_at) / RFU MAPK11 (11762145_a_at) / Fold change /veh MAPK11 (11762145_a_at) / RFU FIZ1 (11724087_x_at) / Fold change /veh FIZ1 (11724087_x_at) / RFU OASL (11726364_x_at) / Fold change /veh OASL (11726364_x_at) / RFU SOX15 (11748057_x_at) / Fold change /veh SOX15 (11748057_x_at) / RFU CD79A (11719716_a_at) / Fold change /veh CD79A (11719716_a_at) / RFU HIST1H1D (11736915_at) / Fold change /veh HIST1H1D (11736915_at) / RFU CASKIN2 (11723855_a_at) / Fold change /veh CASKIN2 (11723855_a_at) / RFU LOC730098 (11760151_x_at) / Fold change /veh LOC730098 (11760151_x_at) / RFU OR4N2 (11742367_at) / Fold change /veh OR4N2 (11742367_at) / RFU PRRT2 (11749266_a_at) / Fold change /veh PRRT2 (11749266_a_at) / RFU SNX32 (11753110_a_at) / Fold change /veh SNX32 (11753110_a_at) / RFU CDHR5 (11726645_a_at) / Fold change /veh CDHR5 (11726645_a_at) / RFU RCAN1 (11760418_a_at) / Fold change /veh RCAN1 (11760418_a_at) / RFU FAM167A (11723789_a_at) / Fold change /veh FAM167A (11723789_a_at) / RFU FAM26E (11764081_at) / Fold change /veh FAM26E (11764081_at) / RFU ISYNA1 (11749810_s_at) / Fold change /veh ISYNA1 (11749810_s_at) / RFU ACY1 (11761880_at) / Fold change /veh ACY1 (11761880_at) / RFU 11764098_at / Fold change /veh 11764098_at / RFU SAMD14 (11745864_x_at) / Fold change /veh SAMD14 (11745864_x_at) / RFU NPB (11741838_a_at) / Fold change /veh NPB (11741838_a_at) / RFU TMPRSS6 (11731388_a_at) / Fold change /veh TMPRSS6 (11731388_a_at) / RFU KRTAP10-2 (11738614_at) / Fold change /veh KRTAP10-2 (11738614_at) / RFU ARHGAP8 /// PRR5-ARHGAP8 (11727945_x_at) / Fold change /veh ARHGAP8 /// PRR5-ARHGAP8 (11727945_x_at) / RFU KRTAP5-7 /// NADSYN1 (11734609_at) / Fold change /veh KRTAP5-7 /// NADSYN1 (11734609_at) / RFU RASL12 (11751679_a_at) / Fold change /veh RASL12 (11751679_a_at) / RFU CDKN2B (11736163_a_at) / Fold change /veh CDKN2B (11736163_a_at) / RFU PRF1 (11729649_at) / Fold change /veh PRF1 (11729649_at) / RFU, ZNF638 /// ZNF638-IT1 / Fold change vs veh, ZNF638 /// ZNF638-IT1 / RFU, PANK3 / Fold change vs veh, PANK3 / RFU, SH3YL1 / Fold change vs veh, SH3YL1 / RFU, ZEB2 / Fold change vs veh, ZEB2 / RFU, NRIP1 / Fold change vs veh, NRIP1 / RFU, PTTG1IP / Fold change vs veh, PTTG1IP / RFU, CAPN2 / Fold change vs veh, CAPN2 / RFU, MED14 / Fold change vs veh, MED14 / RFU, SNORA58 / Fold change vs veh, SNORA58 / RFU, C1orf63 / Fold change vs veh, C1orf63 / RFU, LRRFIP1 / Fold change vs veh, LRRFIP1 / RFU, NDUFAF7 / Fold change vs veh, NDUFAF7 / RFU, SLC12A2 / Fold change vs veh, SLC12A2 / RFU, IBTK / Fold change vs veh, IBTK / RFU, ESF1 / Fold change vs veh, ESF1 / Fold change vs veh, TMEM50B / RFU, TAOK1 / Fold change vs veh, TAOK1 / RFU, ACBD3 / Fold change vs veh, ACBD3 / RFU, TMA16 / Fold change vs veh, TMA16 / RFU, RWDD3 / Fold change vs veh, RWDD3 / RFU, BCAT1 / Fold change vs veh, BCAT1 / RFU, EDEM3 / Fold change vs veh, EDEM3 / RFU, TMEM33 / Fold change vs veh, TMEM33 / RFU, WDR75 / Fold change vs veh, WDR75 / RFU, AHCTF1 / Fold change vs veh, AHCTF1 / RFU, TFRC / Fold change vs veh, TFRC / RFU, ZDHHC17 / Fold change vs veh, ZDHHC17 / RFU, NOM1 / Fold change vs veh, NOM1 / RFU, ARL8B / Fold change vs veh, ARL8B / RFU, ZBTB11 / Fold change vs veh, ZBTB11 / RFU, TAMM41 / Fold change vs veh, TAMM41 / RFU, KIAA1704 /// LOC100996395 / Fold change vs veh, KIAA1704 /// LOC100996395 / RFU, ING1 / Fold change vs veh, ING1 / RFU, TRMT61B / Fold change vs veh, TRMT61B / RFU, FUBP3 / Fold change vs veh, FUBP3 / RFU, TP53 / Fold change vs veh, TP53 / RFU, TNKS2 / Fold change vs veh, TNKS2 / RFU, ZFP14 / Fold change vs veh, ZFP14 / RFU, ACTR2 / Fold change vs veh, ACTR2 / RFU, PPP3R1 / Fold change vs veh, PPP3R1 / RFU, PIK3R1 / Fold change vs veh, PIK3R1 / RFU, HNRNPA1 / Fold change vs veh, HNRNPA1 / RFU, RNF170 / Fold change vs veh, RNF170 / RFU, ZNF28 / Fold change vs veh, ZNF28 / RFU, RNGTT / Fold change vs veh, RNGTT / RFU, OGT / Fold change vs veh, OGT / RFU, BRD1 / Fold change vs veh, BRD1 / RFU, MARS / Fold change vs veh, MARS / RFU, ZNF655 / Fold change vs veh, ZNF655 / RFU, FAHD1 / Fold change vs veh, FAHD1 / RFU, BDP1 / Fold change vs veh, BDP1 / RFU, LRRCC1 / Fold change vs veh, LRRCC1 / RFU, ARID1A / Fold change vs veh, ARID1A / RFU, ZNF146 / Fold change vs veh, ZNF146 / RFU, ZNF330 / Fold change vs veh, ZNF330 / RFU, GPN3 / Fold change vs veh, GPN3 / RFU, C9orf123 / Fold change vs veh, C9orf123 / RFU, N4BP2L2 / Fold change vs veh, N4BP2L2 / RFU, ARFIP1 / Fold change vs veh, ARFIP1 / RFU, FAM179B / Fold change vs veh, FAM179B / RFU, BCL10 / Fold change vs veh, BCL10 / RFU, UHRF1BP1L / Fold change vs veh, UHRF1BP1L / RFU, BET1 / Fold change vs veh, BET1 / RFU, CNOT2 / Fold change vs veh, CNOT2 / RFU, ZNF268 / Fold change vs veh, ZNF268 / Fold change vs veh, ZNF507 / RFU, DGCR2 / Fold change vs veh, DGCR2 / RFU, WDSUB1 / Fold change vs veh, WDSUB1 / Fold change vs veh, HSP90B1 /// MIR3652 / RFU, ADSS / Fold change vs veh, ADSS / RFU, GK / Fold change vs veh, GK / RFU, ZNF148 / Fold change vs veh, ZNF148 / RFU, TAF9 / Fold change vs veh, TAF9 / RFU, SLC1A5 / Fold change vs veh, SLC1A5 / RFU, SLMO2 / Fold change vs veh, SLMO2 / RFU, ABCC4 / Fold change vs veh, ABCC4 / RFU, LOC101060439 /// RAP1B / Fold change vs veh, LOC101060439 /// RAP1B / RFU, RFX7 / Fold change vs veh, RFX7 / RFU, GTPBP10 / Fold change vs veh, GTPBP10 / RFU, CNEP1R1 / Fold change vs veh, CNEP1R1 / RFU, BIVM-ERCC5 /// ERCC5 / Fold change vs veh, BIVM-ERCC5 /// ERCC5 / RFU, ILF3 / Fold change vs veh, ILF3 / RFU 11762660_at / Fold change /veh 11762660_at / RFU VCAN (11757783_s_at) / Fold change /veh VCAN (11757783_s_at) / RFU DDX43 (11728927_at) / Fold change /veh DDX43 (11728927_at) / RFU KRT8 (11758188_x_at) / Fold change /veh KRT8 (11758188_x_at) / RFU NKD1 (11759106_at) / Fold change /veh NKD1 (11759106_at) / RFU SRD5A1 (11742802_a_at) / Fold change /veh SRD5A1 (11742802_a_at) / RFU TPSAB1 /// TPSB2 (11721975_s_at) / Fold change /veh TPSAB1 /// TPSB2 (11721975_s_at) / RFU GSTM3 (11746129_a_at) / Fold change /veh GSTM3 (11746129_a_at) / RFU IL23R (11737362_x_at) / Fold change /veh IL23R (11737362_x_at) / RFU TMEM51 (11727254_a_at) / Fold change /veh TMEM51 (11727254_a_at) / RFU PIWIL2 (11732686_x_at) / Fold change /veh PIWIL2 (11732686_x_at) / RFU ORM1 (11744905_x_at) / Fold change /veh ORM1 (11744905_x_at) / RFU CCDC152 (11743942_at) / Fold change /veh CCDC152 (11743942_at) / RFU ECM1 (11717891_a_at) / Fold change /veh ECM1 (11717891_a_at) / RFU IL23R (11748794_a_at) / Fold change /veh IL23R (11748794_a_at) / RFU TNFAIP8L3 (11732012_x_at) / Fold change /veh TNFAIP8L3 (11732012_x_at) / RFU MBOAT4 (11741988_at) / Fold change /veh MBOAT4 (11741988_at) / RFU 11764193_at / Fold change /veh 11764193_at / RFU TMEM53 (11763286_at) / Fold change /veh TMEM53 (11763286_at) / RFU MAGEB2 (11727129_at) / Fold change /veh MAGEB2 (11727129_at) / RFU TMEM200A (11744735_a_at) / Fold change /veh TMEM200A (11744735_a_at) / RFU CCDC152 (11751479_a_at) / Fold change /veh CCDC152 (11751479_a_at) / RFU FAM211A (11726209_a_at) / Fold change /veh FAM211A (11726209_a_at) / RFU RGS16 (11746705_a_at) / Fold change /veh RGS16 (11746705_a_at) / RFU VCAN (11755009_s_at) / Fold change /veh VCAN (11755009_s_at) / RFU RHOB (11743442_s_at) / Fold change /veh RHOB (11743442_s_at) / RFU RGS16 (11720943_a_at) / Fold change /veh RGS16 (11720943_a_at) / RFU RGS16 (11720944_at) / Fold change /veh RGS16 (11720944_at) / RFU, VPS4B / Fold change vs veh, VPS4B / RFU, CREB1 / Fold change vs veh, CREB1 / RFU, DNAJC13 / Fold change vs veh, DNAJC13 / RFU, GNAQ / Fold change vs veh, GNAQ / RFU, CDK5R1 / Fold change vs veh, CDK5R1 / RFU, ZRANB3 / Fold change vs veh, ZRANB3 / RFU, CUL4A / Fold change vs veh, CUL4A / RFU, CCNY / Fold change vs veh, CCNY / RFU, UFL1 / Fold change vs veh, UFL1 / RFU, COG3 / Fold change vs veh, COG3 / RFU, DIAPH2 / Fold change vs veh, DIAPH2 / RFU, SKA2 / Fold change vs veh, SKA2 / RFU, AFF3 / Fold change vs veh, AFF3 / RFU, LMF1 / Fold change vs veh, LMF1 / RFU, IPO11 / Fold change vs veh, IPO11 / RFU, DFFB / Fold change vs veh, DFFB / RFU, FOXP1 / Fold change vs veh, FOXP1 / RFU, CARD8 / Fold change vs veh, CARD8 / RFU, STRN3 / Fold change vs veh, STRN3 / RFU, ADK / Fold change vs veh, ADK / RFU, RASSF2 / Fold change vs veh, RASSF2 / RFU, WIPF1 / Fold change vs veh, WIPF1 / RFU, LARP1B / Fold change vs veh, LARP1B / RFU, RASA1 / Fold change vs veh, RASA1 / RFU, RB1 / Fold change vs veh, RB1 / RFU, PPFIA1 / Fold change vs veh, PPFIA1 / RFU, MAT2A / Fold change vs veh, MAT2A / RFU, CCT5 / Fold change vs veh, CCT5 / RFU, WDR92 / Fold change vs veh, WDR92 / RFU, CUX1 / Fold change vs veh, CUX1 / RFU, TTC7A / Fold change vs veh, TTC7A / RFU, TMEM135 / Fold change vs veh, TMEM135 / RFU, DEPTOR / Fold change vs veh, DEPTOR / RFU, CPM / Fold change vs veh, CPM / RFU, DNAJB6 / Fold change vs veh, DNAJB6 / RFU, CACNA2D3 / Fold change vs veh, CACNA2D3 / RFU, DTX4 / Fold change vs veh, DTX4 / RFU, TFCP2 / Fold change vs veh, TFCP2 / RFU, GMCL1 /// GMCL1P1 / Fold change vs veh, GMCL1 /// GMCL1P1 / RFU, AEBP2 / Fold change vs veh, AEBP2 / RFU, SNHG1 /// SNORD22 /// SNORD25 /// SNORD26 /// SNORD27 /// SNORD28 /// SNORD29 /// SNORD31 / Fold change vs veh, SNHG1 /// SNORD22 /// SNORD25 /// SNORD26 /// SNORD27 /// SNORD28 /// SNORD29 /// SNORD31 / Fold change (Aza/veh), C12orf56 (ProbeSet 11735607_a_at) / Fold change (ACY-1035/veh), C12orf56 (ProbeSet 11735607_a_at) / Fold change (Aza/veh), FGFR1OP (ProbeSet 11751329_s_at) / Fold change (ACY-1035/veh), FGFR1OP (ProbeSet 11751329_s_at) / Fold change (Aza/veh), VPS36 (ProbeSet 11739960_a_at) / Fold change (ACY-1035/veh), VPS36 (ProbeSet 11739960_a_at) / RFU SYPL1 (11715823_x_at) / Fold change /veh SYPL1 (11715823_x_at) / RFU IGFBP7 (11715501_s_at) / Fold change /veh IGFBP7 (11715501_s_at) / RFU REEP3 (11722064_at) / Fold change /veh REEP3 (11722064_at) / RFU IGLL1 (11728026_x_at) / Fold change /veh IGLL1 (11728026_x_at): dose or concentration left out as unconfirmed
# Conditions: MV-4-11 cells, 48 hours
smiles,measurement,value
Nc1ncn([C@@H]2O[C@H](CO)[C@@H](O)[C@H]2O)c(=O)n1 [azacitidine],Fold change /veh VCAN (11755009_s_at),1.97
